Measured values: ChEMBL document CHEMBL2057112, “Enamino-oxindole HIV protease inhibitors” (Bioorg Med Chem Lett, 2012)

Experiments:
[1] = Inhibition of wild type Human immunodeficiency virus protease expressed in Escherichia coli using ArgGlu(EDANS)SerGlnAsnTyrProIleValGlnLys(DABCYL)Arg as substrate preincubated with compound for 0.5 to 1 min measured by fluorometric analysis at pH 6.5
[2] = Inhibition of Human immunodeficiency virus protease M8 mutant expressed in Escherichia coli using ArgGlu(EDANS)SerGlnAsnTyrProIleValGlnLys(DABCYL)Arg as substrate preincubated with compound for 0.5 to 1 min measured by fluorometric analysis at pH 6.5
[3] = Inhibition of Human immunodeficiency virus protease M9 mutant expressed in Escherichia coli using ArgGlu(EDANS)SerGlnAsnTyrProIleValGlnLys(DABCYL)Arg as substrate preincubated with compound for 0.5 to 1 min measured by fluorometric analysis at pH 6.5
[4] = Inhibition of Human immunodeficiency virus protease M10 mutant expressed in Escherichia coli using ArgGlu(EDANS)SerGlnAsnTyrProIleValGlnLys(DABCYL)Arg as substrate preincubated with compound for 0.5 to 1 min measured by fluorometric analysis at pH 6.5
[5] = system: Human immunodeficiency virus 1; experiment: Antiviral activity against Human immunodeficiency virus 1 HXB2 expressing wild type protease infected in human MT4 cells after 5 days by MTT assay; format: functional, organism-based; conditions: Human immunodeficiency virus 1, HXB2, MT4, 120 h
[6] = system: Human immunodeficiency virus 1; experiment: Antiviral activity against Human immunodeficiency virus 1 HXB2 expressing protease M8 mutant infected in human MT4 cells after 5 days by MTT assay; format: functional, organism-based; conditions: Human immunodeficiency virus 1, HXB2, MT4, 120 h
[7] = system: Human immunodeficiency virus 1; experiment: Antiviral activity against Human immunodeficiency virus 1 HXB2 expressing protease M9 mutant infected in human MT4 cells after 5 days by MTT assay; format: functional, organism-based; conditions: Human immunodeficiency virus 1, HXB2, MT4, 120 h
[8] = system: Human immunodeficiency virus 1; experiment: Antiviral activity against Human immunodeficiency virus 1 HXB2 expressing protease M10 mutant infected in human MT4 cells after 5 days by MTT assay; format: functional, organism-based; conditions: Human immunodeficiency virus 1, HXB2, MT4, 120 h

Structure (SMILES)	Ki [1]	Ki [2]	Ki [3]	Ki [4]	IC50 [5]	IC50 [6]	IC50 [7]	IC50 [8]
CC(C)CN(C[C@@H](O)[C@H](Cc1ccccc1)NC(=O)O[C@H]1CO[C@H]2OCC[C@H]21)S(=O)(=O)c1ccc2c(c1)C(=CNC(C)C)C(=O)N2 (mixture of isomers)	< 0.1 nM	0.11 nM	< 0.3 nM	< 1 nM	15 nM	30 nM	19 nM	60 nM
CC(C)CN(C[C@@H](O)[C@H](Cc1ccccc1)NC(=O)O[C@H]1CO[C@H]2OCC[C@H]21)S(=O)(=O)c1ccc2c(c1)C(=CNCc1nc3ccccc3[nH]1)C(=O)N2 (mixture of isomers)	< 0.1 nM	–	< 0.3 nM	< 1 nM	> 400 nM	–	–	–
CCNC=C1C(=O)Nc2ccc(S(=O)(=O)N(CC(C)C)C[C@@H](O)[C@H](Cc3ccccc3)NC(=O)O[C@H]3CO[C@H]4OCC[C@H]43)cc21 (mixture of isomers)	< 0.1 nM	–	< 0.3 nM	< 1 nM	28 nM	35 nM	27 nM	80 nM
CC(C)CN(C[C@@H](O)[C@H](Cc1ccccc1)NC(=O)O[C@H]1CO[C@H]2OCC[C@H]21)S(=O)(=O)c1ccc2c(c1)C(=CNCCN(C)C)C(=O)N2 (mixture of isomers)	< 0.1 nM	0.57 nM	< 0.3 nM	1.7 nM	> 400 nM	–	–	–
CC(C)CN(C[C@@H](O)[C@H](Cc1ccccc1)NC(=O)O[C@H]1CO[C@H]2OCC[C@H]21)S(=O)(=O)c1ccc2c(c1)C(=CN)C(=O)N2 (mixture of isomers)	< 0.1 nM	–	< 0.3 nM	3 nM	300 nM	200 nM	200 nM	180 nM
Cc1nc(CNC=C2C(=O)Nc3ccc(S(=O)(=O)N(CC(C)C)C[C@@H](O)[C@H](Cc4ccccc4)NC(=O)O[C@H]4CO[C@H]5OCC[C@H]54)cc32)cs1 (mixture of isomers)	< 0.1 nM	–	< 0.3 nM	< 1 nM	45 nM	40 nM	30 nM	29 nM
CC(C)CN(C[C@@H](O)[C@H](Cc1ccccc1)NC(=O)O[C@H]1CO[C@H]2OCC[C@H]21)S(=O)(=O)c1ccc2c(c1)C(=CNCCO)C(=O)N2 (mixture of isomers)	< 0.1 nM	0.11 nM	< 0.3 nM	< 1 nM	> 400 nM	–	800 nM	400 nM
CCN(C=C1C(=O)Nc2ccc(S(=O)(=O)N(CC(C)C)C[C@@H](O)[C@H](Cc3ccccc3)NC(=O)O[C@H]3CO[C@H]4OCC[C@H]43)cc21)CC (mixture of isomers)	< 0.1 nM	–	< 0.3 nM	< 1 nM	38 nM	40 nM	21 nM	41 nM
COCCNC=C1C(=O)Nc2ccc(S(=O)(=O)N(CC(C)C)C[C@@H](O)[C@H](Cc3ccccc3)NC(=O)O[C@H]3CO[C@H]4OCC[C@H]43)cc21 (mixture of isomers)	0.11 nM	< 0.1 nM	< 0.3 nM	1.2 nM	70 nM	–	42 nM	48 nM
CC(C)CN(C[C@@H](O)[C@H](Cc1ccccc1)NC(=O)O[C@H]1CO[C@H]2OCC[C@H]21)S(=O)(=O)c1ccc2c(c1)C(=CNCc1ccncc1)C(=O)N2 (mixture of isomers)	< 0.1 nM	–	< 0.3 nM	< 1 nM	300 nM	270 nM	220 nM	110 nM
CC(C)CN(C[C@@H](O)[C@H](Cc1ccccc1)NC(=O)O[C@H]1CO[C@H]2OCC[C@H]21)S(=O)(=O)c1ccc2c(c1)C(=CN(C)C)C(=O)N2 (mixture of isomers)	< 0.1 nM	–	< 0.3 nM	< 1 nM	93 nM	90 nM	65 nM	70 nM
